pIC50: −log10 of the molar value. “And” between values parts separate entries of the source, which are not always exact repeats. Equal entries are not always repeated.
System: 966289-007-R4-J1-PDC complex spheroid viability
Experiment: Anticancer human tumor 966289-007-R4-J1-PDC patient-derived pancreatic adenocarcinoma cell line growth inhibition [GQUAD]
Conditions: for viability, T/C: stronger effect = lower value
Text: DNA G-quadruplex Stabilizer Agents in Combinations in Complex Spheroids
A high-throughput screen of multi-cell type tumor spheroids was designed to identify active combinations of DNA G-quadruplex stabilizer agents and targeted small molecules. Complex spheroids include a stromal component modeled by human endothelial cells (HUVEC) and fibroblasts modeled by human mesenchymal stem cells (MSCs). The concentration ranges selected for each drug and investigational agent were based upon clinically achievable concentrations if the clinical Cmax of the agent was known.
Compounds. The drugs and investigational agents: pidnarulex (CX-5461; NSC782164), APTO-253 (NSC789042), BRACO-19 (NSC847499), peposertib (NSC802822), ceralasertib (NSC780249), elimusertib (NSC800525), camonsertib (NSC841442), AZD-1390 (NSC803789), olaparib (NSC753686), talazoparib (NSC767125), ART-558 (NSC835418), sotorasib (NSC818433), MRTX-1133 (NSC836407), SN-38 (NSC673596), topotecan (NSC609699), etoposide (NSC141540), doxorubicin (NSC123127), gemcitabine (NSC613327), 5-fluorouracil (NSC19893), paclitaxel (NSC125973), vemurafenib (NSC761431), panobinostat (NSC761190), R-306465 (JNJ-16241199; NSC773264), adavosertib (NSC754352), TP-3654 (NSC805149), carboplatin (NSC241240), KSQ-4279 (NSC840948), and staurosporine (NSC755774) were obtained from the National Cancer Institute (NCI) Developmental Therapeutics Program Chemical Repository (34). The FDA-approved anticancer drug set is available from the NCI Developmental Therapeutics Program. […] The stock solutions were prepared in dimethyl sulfoxide (DMSO, Sigma-Aldrich, St. Louis, MO, cat. D2650) at 800-fold the tested concentration and stored at -70 degrees C prior to their use. All drugs and investigational agents were tested over a range starting from a high concentration at or near the clinical Cmax and decreasing in half-log increments. If the clinical Cmax for an agent had not been determined, the highest concentration tested was 10 microM.
2.3 Cell Culture. All cells were maintained in an incubator at 37 degrees C and 5% CO2 with 95% humidity. The PDC lines were cultured according to standard operating procedures established by the NCI PDMR. All PDCs were thawed and cultured in Matrigel-coated flasks prepared with a working solution of 1X Ham's F-12 nutrient mix, without supplementation (Invitrogen, cat. 11765054), 100 U/mL penicillin-streptomycin (Invitrogen, cat. 15140122), and 2.5% Matrigel (Corning Inc., cat. 354248) for the first three passages. The 857933-349-R-J2-PDC line was cultured in 6C/Colon 1B media, which includes advanced DMEM/F-12 (Thermo Fisher Scientific, cat. 12634028), 10 mM HEPES (Thermo Fisher Scientific, cat. 15630080), 1X GlutaMAX supplement (Thermo Fisher Scientific, cat. 35050061), 0.1 mg/mL primocin (InvivoGen, cat. ant-pm-2), 10% defined fetal bovine serum, heat inactivated (HyClone Laboratories Inc., cat. SH30070.03HI), 50% L-WRN conditioned media (ATCC, cat. CRL-3276), 1.25 mM N-Acetyl-L-cysteine (Sigma-Aldrich, cat. A9165), 10 mM nicotinamide (Sigma-Aldrich, cat. N0636), 1X B-27 supplement (Thermo Fisher Scientific, cat. 17504044), 1X N-2 supplement (Thermo Fisher Scientific, cat. 17502048), 10 microM Y-27632 dihydrochloride (Tocris Bioscience, cat. 1254), and 50 ng/mL human EGF recombinant protein (Thermo Fisher Scientific, cat. PHG0311). The 485176-168-R4-J1-PDC line was cultured in Panc media, which includes all 6C/Colon 1B media components plus 100 ng/mL human FGF-10 (Thermo Fisher Scientific, cat. 100-26), 500 nM SB-431542 (Selleckchem, cat. S1067), and gastrin (Tocris, cat. 3006).
[…]

[1] = compound alone, run of 03/18/2024
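Also: spheroids exposed to the agents for seven days before readout.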
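For viability, T/C in this document: percent viability relative to DMSO vehicle control wells taken as 100%.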

Structure (SMILES)	viability, T/C (compound 0.0316 µM)	viability, T/C (compound 0.1 µM)	viability, T/C (compound 0.316 µM)	viability, T/C (compound 1 µM)	viability, T/C (compound 3.16 µM)	viability, T/C (compound 10 µM)	pIC50 (curve of compound)	pIC50 [1]	pIC50 (compound alone, run of 03/26/2024)	viability, T/C (compound 0.000999 µM)	viability, T/C (compound 0.00316 µM)	viability, T/C (compound 0.00999 µM)	viability, T/C (compound 0.0999 µM)	IC50 [1]
COc1cc(C2c3cc4c(cc3C(OC3OC5COC(C)OC5C(O)C3O)C3COC(=O)C23)OCO4)cc(OC)c1O (stereo unspecified)	106% (2×) and 108%	108% and 111% and 110%	41.2% and 40.8% and 50.3%	5.14% and 5.7% and 8.75%	1.52% and 0.98% and 2.8%	0.83% and 0.61% and 0.86%	6.57 and 6.49							
COc1ccc([C@@H](O)c2cc(-c3ncnc4cc(N5CCOCC5)ccc34)c(F)cc2Cl)nn1	103% and 98.9% and 97.2%	92.9% and 100% and 92%	110% and 106% and 105%	103% (2×) and 108%	113% and 110% and 126%	90.2% and 103% and 108%	< 5.00							
COc1cccc2c1C(=O)c1c(O)c3c(c(O)c1C2=O)CC(O)(C(=O)CO)CC3OC1CC(N)C(O)C(C)O1 (stereo unspecified)	112% and 114% and 102%	12.9% and 19.6% and 8.98%	3.19% and 2.75% and 1.72%	0.71% and 0.91% and 0.56%	0.27% and 0.41% and 0.16%	0.4% and 0.47% and 0.34%	7.19 and 7.16 and 7.22							
COc1ncnc(C2CC2)c1-c1ncc2cnn(Cc3ccc(-c4nc(C(F)(F)F)cn4C(C)C)cc3)c2n1	92.2% and 102% and 104%	102% and 103% and 100%	101% and 102% and 100%	107% and 98% and 97%	103% and 106% (2×)	116% and 108% (2×)	< 5.00							
Cc1[nH]c2ccc(F)cc2c1-c1nc2c3cccnc3c3ncccc3c2[nH]1	104% [middle of 11 runs]	108% [middle of 11 runs]	109% [middle of 11 runs]	109% [middle of 11 runs]	106% [middle of 11 runs]	98.2% [middle of 11 runs]		< 5.00	< 5.00					
Cc1[nH]c2ccccc2c1CCNCc1ccc(/C=C/C(=O)NO)cc1	100% and 97.8% and 99.5%		4.6% and 4.59% and 3.46%				7.14 and 7.15 and 7.20			110% and 92.2% and 99.7%	100% and 103% and 113%	104% and 91% and 101%	31.1% and 30.7% and 17.7%	
Cc1cccc(N(C)C(=O)C2C(O)CCN2c2nc(C)cc(C(F)(F)F)c2C#N)c1 (stereo unspecified)	92% and 111% and 99.9%	98.4% and 97.2% and 95.8%	103% (2×) and 109%	94.9% and 98% and 99.5%	107% and 106% and 89.2%	102% and 107% (2×)	< 5.00							
Cc1cnc(CNC(=O)c2c(=O)c3ccc(N4CCCN(C)CC4)nc3n3c2sc2ccccc23)cn1		36.7% [middle of 12 runs]	12.6% [middle of 12 runs]	6.91% [middle of 11 runs]	5.45% [middle of 11 runs]	0.16% [middle of 11 runs]								81.7 nM [middle of 11 runs]
Cn1ncnc1[C@H]1c2n[nH]c(=O)c3cc(F)cc(c23)N[C@@H]1c1ccc(F)cc1	92.4% and 104% and 99.6%		22.8% and 22.4% and 18%				7.02 and 6.77 and 7.04			105% and 99.3% and 95.6%	91.2% and 98.8% and 98.2%	113% and 105% and 112%	48.8% and 72.8% and 46.1%	
Nc1ccn(C2OC(CO)C(O)C2(F)F)c(=O)n1 (stereo unspecified)	6.63% and 12% and 8.01%	0.75% and 1.27% and 0.79%	0.96% and 0.9% and 0.65%	0.7% and 0.97% and 0.68%	0.83% and 1.32% and 0.61%	0.79% and 1.07% and 0.63%	> 7.50							
O=C(NO)c1cnc(N2CCN(S(=O)(=O)c3ccc4ccccc4c3)CC2)nc1	104% and 97% and 89.4%	104% (2×) and 99.9%	33.4% and 39% and 70%	7.89% and 9.13% and 14.1%	1.55% and 1.2% and 4.88%	0.4% and 0.34% and 0.29%	6.62 and 6.59 and 6.32							
O=C(c1cc(Cc2n[nH]c(=O)c3ccccc23)ccc1F)N1CCN(C(=O)C2CC2)CC1	111% and 99.1% and 104%	98.8% and 108% and 98.4%	109% and 105% and 111%	106% and 108% and 112%	67.5% and 82.8% and 61.1%	11.2% and 10.4% and 14.9%	5.34 and 5.27 and 5.38							
O=c1[nH]cc(F)c(=O)[nH]1	102% and 98.6% and 93.7%	102% and 85.7% and 101%	14% and 12.6% and 16.4%	6.4% and 6.04% and 6.66%	6.46% and 5.66% and 4.89%	6.43% and 6.71% and 6.08%	6.71 and 6.75							
